The numbers were not newly measured in patent US20140135284A1, “COMPOSITION OF AQUEOUS BUFFER SOLUTION FOR THE TREATMENT OF CELLULAR ENVIRONMENT AND ION CHANNELS AND METHODS FOR USING SAME” (priority 2007, published 2014), which cites them from elsewhere.

This data set concerns inflammation. Particulars: acid species studied, small reductions in pH.

Regarding `Cl` [Hydrochloric acid], the effect on inflammation result is “upregulated inflammation”.
Take `CC(O)C(=O)O` (centres unmarked) [Lactic acid]: the effect on inflammation result is on record as “effective anti-inflammatory”.
